The results in this text go back to US9272056B2, “Method to produce hyperpolarised carboxylates” (GE Healthcare AS, priority 2005, dated 2016).

A short description of this series: T1 relaxation in human full blood. The note with it: human full blood at 37° C. It is filed as physicochemical. An excerpt: The amount of alanine, bicarbonate and lactate is dependent on the metabolic status of the tissue under investigation.

With `CC(=O)[13C](=O)O` [^13C-pyruvate], the T1 relaxation entry is reported as “about 42 s”.
